Here are results for one compound from patent US11052087B2, “Anti-HIV compounds” (priority 2018, dated 2021).

The subject of data set [1] is HIV-1 (IIIB) in MT-4 cells. Nature of the data set: MT-4 HIV Assay. The note with it: Human immunodeficiency virus 1, IIIB, MT4, 120 h. It is filed as cell-based. How it is done: Compounds were tested in a high-throughput 384-well assay format for their ability to inhibit the replication of HIV-1 (IIIB) in MT-4 cells. Compounds were serially diluted (1:3) in DMSO on 384-well polypropylene plates and further diluted 200-fold into complete RPMI media (10% FBS, 1% P/S) using the Biotek Micro Flow and Agilent ECHO acoustic dispenser. Each plate contained up to 8 test compounds, with negative (No Drug Control) and 5 μM AZT positive controls. MT-4 cells were pre-infected with 10 μL of either RPMI (mock-infected) or a fresh 1:250 dilution of an HIV-1 (IIIB) concentrated virus stock. Infected and uninfected MT-4 cells were further diluted in complete RPMI media and added to each plate using a Micro Flow dispenser. After 5 days incubation in a humidified and temperature controlled incubator (37° C.), Cell Titer Glo (Promega) was added to the assay plates to quantify the amount of luciferase. EC50 values were defined as the compound concentration that causes a 50% decrease in luminescence signal, and were calculated using a sigmoidal dose-response model to generate curve fits.

Another data set in a line: Rat PK. The data set is classed as in vivo. The note with it: compound 14 oral solution, 75 mg-eq/kg dose group, male SD rats, LC/MS/MS. How it is done:
Compound 14 was formulated in a solution formulation (84% 10 mM HCl; 15% 2-Hydroxypropyl-β-Cyclodextrin; 1% Dimethyl sulfoxide pH 2.0) and administered orally at 2.5 and 75 mg-eq/kg to a dosing groups consisting of three male SD rats. At dosing, the animals weighed between 270 and 350 g. […] Trace amounts of compound 14 were detected in plasma in the 75 mg-eq/kg dose group.

The EC50 is the concentration at which the effect is half-maximal.

As for `COC(=O)N[C@H](C(=O)N[C@@H](Cc1ccc(C#Cc2cnc(N3CC4CCC(C3)N4C3COC3)nc2)cc1)[C@H](CN(Cc1c(F)cc(-c2ccn(C(F)F)n2)cc1F)NC(=O)[C@@H](NC(=O)OC)C(C)(C)C(F)(F)F)OC(=O)CN(C)C(=O)[C@@H](N)Cc1ccccc1)C(C)(C)C(F)(F)F` [Example 14, (2S,3S)-1-(1-(4-(1-(difluoromethyl)-1H-pyrazol-3-yl)-2,6-difluorobenzyl)-2-((S)-4,4,4-trifluoro-2-((methoxycarbonyl)amino)-3,3-dimethylbutanoyl)hydrazinyl)-4-(4-((2-(8-(oxetan-3-yl)-3,8-diazabicyclo[3.2.1]octan-3-yl)pyrimidin-5-yl)ethynyl)phenyl)-3-((S)-4,4,4-trifluoro-2-((methoxycarbonyl)amino)-3,3-dimethylbutanamido)butan-2-yl N-(L-phenylalanyl)-N-methylglycinate], it took 6.54 nM to reach a half-maximal effect in data set [1] (EC50). For the same compound, the “concentration of compound 14 in plasma” value in “Rat PK” is “Trace amounts”.
